Experimental data: paper PMC11993615, “Design, synthesis and optimization of TarO inhibitors as multifunctional antibiotics against Methicillin-resistant Staphylococcus aureus” (npj Antimicrobials and Resistance, 2025)
pIC50: −log10 of the molar value.

Columns and labels:
USA300 LAC = assay: Checkerboard MIC assay with oxacillin; type: cell-based, Staphylococcus aureus; settings: for FICI / Sensitization fold / Minimum sensitization concentration: USA300 LAC/oxacillin; for Minimum sensitization concentration: test range 0.03–32 μg/mL
Description: (§1) In the checkerboard assay, concentrations of antibiotics, oxacillin and imipenem, and TarO inhibitors were simultaneously varied across columns and the rows, respectively. […] The range of each compound chosen for the checkerboard assay was according to their MIC value. […] For each clear well observed on the checkerboard MIC plate, the fractional inhibitory concentration index (FICI) was calculated as follows: FICI = FIC (inhibitor) + FIC (antibiotic) = MIC inhibitor in combination/ MIC inhibitor alone + MIC antibiotic in combination/MIC antibiotic alone. FIC = Fractional Inhibitory Concentration. A FICI value of < 0.5 indicates synergy, a value between 0.5 and 2 indicates additivity or indifference, and a value > 2 indicates antagonism.

TarO = TarO (Staphylococcus aureus, UniProt Q2G060); type: cell-based; settings: for pIC50: relative inhibition rate against the wild-type strain, OD600 at 20 h, n.a. = IC50 cannot be calculated within the test range; for TarO inhibitory activity (in words): SAR discussion
HS663 = assay: Checkerboard MIC assay with imipenem; type: cell-based, Staphylococcus aureus; settings: imipenem used alone, HS663
Description: as §1

USA400 MW2 = assay: Checkerboard MIC assay with oxacillin; type: cell-based, Staphylococcus aureus; settings: oxacillin used alone, USA400 MW2
Description: as §1

[1] = at maximum sensitization concentration
[2] = at minimum sensitization concentration
[3] = Staphylococcus aureus, read-out: MIC of β-lactam, Individual

Q: With `C[C@H]1[C@@H](c2cc(C(F)(F)F)cc(C(F)(F)F)c2)OC(=O)N1C(=O)OCc1cccc2ccccc12` [Compound 1] as the compound, how does the FICI (USA300 LAC; [1]) read?
A: < 0.07

Q: What about the Sensitization fold (USA300 LAC; [1]) of the same compound?
A: 16

Q: And the Sensitization fold (USA300 LAC; [2])?
A: 8

Q: What about the Minimum sensitization concentration (USA300 LAC) of the same compound?
A: 0.06 µg/mL

Q: What about the pIC50 (TarO) of the same compound?
A: 6.79

Q: `C[C@H]1[C@@H](c2cc(C(F)(F)F)cc(C(F)(F)F)c2)OC(=O)N1C(=O)SCc1cccc2ccccc12` [Compound 2] was tested. Which FICI (USA300 LAC; [1]) did it give?
A: < 0.04

Q: And the Sensitization fold (USA300 LAC; [1])?
A: 32

Q: And the Sensitization fold (USA300 LAC; [2])?
A: 8

Q: What about the Minimum sensitization concentration (USA300 LAC) of the same compound?
A: 0.06 µg/mL

Q: And the “TarO inhibitory activity (in words)” value (TarO)?
A: potent TarO inhibitory activity

Q: And the pIC50 (TarO)?
A: 7.01

Q: Which FICI (USA300 LAC; [1]) does the source give for `C[C@H]1[C@@H](c2cc(C(F)(F)F)cc(C(F)(F)F)c2)OC(=O)N1C(=S)NCc1cccc2ccccc12` [Compound 5] here?
A: < 0.13

Q: What about the Sensitization fold (USA300 LAC; [1]) of the same compound?
A: 8

Q: And the Sensitization fold (USA300 LAC; [2])?
A: 8

Q: And the Minimum sensitization concentration (USA300 LAC)?
A: 0.25 µg/mL

Q: What about the pIC50 (TarO) of the same compound?
A: 5.05

Q: With `C[C@H]1[C@@H](c2cc(C(F)(F)F)cc(C(F)(F)F)c2)OC(=O)N1C(=O)N1CC(c2cccc3ccccc23)C1` [Compound 6] as the compound, how does the “TarO inhibitory activity (in words)” value (TarO) read?
A: loss of activity

Q: How did the pIC50 (TarO) turn out when `C[C@H]1[C@@H](c2cc(C(F)(F)F)cc(C(F)(F)F)c2)OC(=O)N1C(=O)CNc1cccc2ccccc12` [Compound 7] was run?
A: 5.14

Q: How did the “TarO inhibitory activity (in words)” value (TarO) turn out when `C[C@H]1[C@@H](c2cc(C(F)(F)F)cc(C(F)(F)F)c2)OC(=O)N1C(=O)CCC1CCCCC1` [Compound 8] was run?
A: inactive

Q: Which “TarO inhibitory activity (in words)” value (TarO) does the source give for `C[C@H]1[C@@H](c2cc(C(F)(F)F)cc(C(F)(F)F)c2)OC(=O)N1C(=O)CCN1CCS(=O)(=O)c2ccccc21` [Compound 9] here?
A: potent inhibition activity comparable to Tarocin A

Q: What about the pIC50 (TarO) of the same compound?
A: 5.20

Q: Which results are given for `C[C@H]1[C@@H](c2cc(C(F)(F)F)cc(C(F)(F)F)c2)OC(=O)N1C(=O)CCN1CCOc2ccccc21` [Compound 11]?
A: FICI (USA300 LAC; [1]): < 0.07; Sensitization fold (USA300 LAC; [1]): 16; Sensitization fold (USA300 LAC; [2]): 4; Minimum sensitization concentration (USA300 LAC): 0.03 µg/mL; pIC50 (TarO): 5.70

Q: With `C[C@H]1[C@@H](c2cc(C(F)(F)F)cc(C(F)(F)F)c2)OC(=O)N1C(=O)CCN1CCC(=O)c2ccccc21` [Compound 12] as the compound, how does the pIC50 (TarO) read?
A: 5.30

Q: How did the FICI (USA300 LAC; [1]) turn out when `C[C@H]1[C@@H](c2cc(C(F)(F)F)cc(C(F)(F)F)c2)OC(=O)N1C(=O)CCc1cccc2c1OCCC2=O` [Compound 14] was run?
A: < 0.08

Q: What about the Sensitization fold (USA300 LAC; [1]) of the same compound?
A: 16

Q: And the Sensitization fold (USA300 LAC; [2])?
A: 8

Q: What about the Minimum sensitization concentration (USA300 LAC) of the same compound?
A: 0.25 µg/mL

Q: What about the pIC50 (TarO) of the same compound?
A: 5.39

Q: How did the pIC50 (TarO) turn out when `COc1cc(C(F)(F)F)cc([C@H]2OC(=O)N(C(=O)CCn3ccc(=O)c4ccccc43)[C@H]2C)n1` [Compound 17b] was run?
A: 4.65

Q: With `C[C@H]1[C@@H](c2cc(F)cc(C(F)(F)F)c2)OC(=O)N1C(=O)CCn1ccc(=O)c2ccccc21` [Compound 17c] as the compound, how does the pIC50 (TarO) read?
A: 4.56

Q: `C[C@H]1[C@@H](c2cccc(C(F)(F)F)c2)OC(=O)N1C(=O)CCn1ccc(=O)c2ccccc21` [Compound 17d] was tested. Which pIC50 (TarO) did it give?
A: 4.52

Q: With `C[C@H]1[C@@H](c2cc(C(F)(F)F)cc(C(F)(F)F)c2)OC(=O)N1C(=O)CCN1CCS(=O)(=O)CC1` [Compound 19] as the compound, how does the “TarO inhibitory activity (in words)” value (TarO) read?
A: lost its activity

Q: `C[C@H]1[C@@H](c2cc(C(F)(F)F)cc(C(F)(F)F)c2)OC(=O)N1C(=O)CCc1cccc2c1OCC/C2=N\O` [Compound 23] was tested. Which pIC50 (TarO) did it give?
A: 5.12

Q: With `C[C@H]1[C@@H](c2cccc(C(F)(F)F)c2)OC(=O)N1C(=O)NCc1cncc2ccccc12` [Tarocin A2, reference compound] as the compound, how does the pIC50 (TarO) read?
A: 4.62

Q: Which results are given for `C[C@@H](O)[C@H]1C(=O)N2C(C(=O)O)=C(SCCN=CN)C[C@H]12` [imipenem, reference compound]?
A: MIC (HS663; [3]): 64 µg/mL; MIC of β-lactam, Individual (HS663): 64 µg/mL

Q: How did the MIC (USA400 MW2; [3]) turn out when `Cc1onc(-c2ccccc2)c1C(=O)N[C@@H]1C(=O)N2[C@@H]1SC(C)(C)[C@@H]2C(=O)O` [oxacillin, reference compound] was run?
A: 16 µg/mL

Q: And the “MIC of β-lactam, Individual” value (USA400 MW2)?
A: 16 µg/mL

Q: And the MIC (USA300 LAC; Staphylococcus aureus, oxacillin used alone, USA300 LAC, read-out: MIC of β-lactam, Individual)?
A: 64 µg/mL

Q: And the “MIC of β-lactam, Individual” value (USA300 LAC; oxacillin used alone, USA300 LAC)?
A: 64 µg/mL

Q: tunicamycin [reference compound] was tested. Which “induction of vraXpro-lux expression” value (TarO; MRSA USA300 LAC strain, exponential growth phase) did it give?
A: concentration-dependent manner

Q: What about the “bacterial growth density (OD600)” value (TarO; post-exponential growth phase) of the same compound?
A: effectively reduced the bacterial growth density
